Data taken from patent US20240016786A1, “GLUCOSIDASE INHIBITORS FOR THE TREATMENT AND PREVENTION OF PULMONARY INFECTIONS” (priority 2020, published 2024).
Converted amounts (≈) assume the structure as drawn. Read-outs that look alike come from different tables or passages of the source.

Experiments:
[1] = test system: SARS-CoV-2; assay: SARS-CoV-2 Virospot reduction assay, (strain not specified); assay type: cell-based; conditions: for activity against strains of SARS-CoV-2: good in vitro activity e.g. IC50<100 μg/mL
[2] = test system: SARS-Cov-2 UK (B.1.1.7); assay: SARS-CoV-2 Virospot reduction assay (Viroclinics), Vero E6 cells; assay type: cell-based
[3] = test system: SARS-Cov-2 SA (B.1.351); assay: as above; assay type: cell-based
[4] = test system: SARS-Cov-2 Germany/BavPat1/2020; assay: as above; assay type: cell-based
Description: SARS-CoV-2 testing was carried out by the independent contract research organization Viroclinics, Netherlands, using the SARS—CoV-2 Virospot reduction assay. This is a high throughput assay to determine the IC50/IC90 (also termed EC50/EC90) of putative antiviral compounds as compared to other assay formats (such as traditional plaque count assays), and improved traceability from raw data to results. The assay measures drug or antibody-mediated reduction of virus propagation in cell monolayers, by virus-specific immunostaining and automated imaging of infected cells. Automated counting of the number of infected foci (i.e., “spots”) provides the raw data for IC50/IC90 calculations.
A serial dilution series of the test article is mixed with a fixed amount of virus and the virus/inhibitor is added to Vero E6 cells. Virus control wells without inhibitor and cell controls without drug and virus are included. Viral propagation is measured after 16-24 h incubation by TrueBlue immunostaining of infected cells and automated counting of viral “spots” (corresponding to area of viral growth and protein expression) and the IC50 value is calculated using 4 replicates.
Adherent cells were seeded in multi-well plates. Cell cultures were inoculated with a standardized amount of virus, in the absence and presence of serial compound dilutions, followed by 18-24 hours of incubation and an appropriate virus detection method (Immunostaining and count spots using a CTL Immunospot Image Analyser).
Virus signals were detected in presence of each compound concentration determine the 50% inhibitory concentration (IC50) and the 90% inhibitory concentration (IC90). The IC50 and IC90 values were calculated from the virus signals using the method described by Zielinska et al. (Virol J. 2005, 2(84)).
Remdesivir was used as a positive control.
Although cytotoxicity was not directly measured, the assay required intact cell monolayers to deliver a result. Severe cytotoxicity would be evident upon visual inspection and any deleterious effect of compound upon cell health is likely to negatively impact the formation of “spots”. This was not reported.

[5] = test system: SARS-CoV-2; conditions: Huh7-hACE2 cells; cited from earlier work
[6] = test system: Huh7-hACE2 cells; conditions: cited from earlier work
[7] = Hygroscopicity observed on recovery of spray dried material; assay type: physicochemical; conditions: on collection/recovery after spray drying
[8] = test system: Huh7-hACE2 cells; conditions: cited from earlier work; remark: listed apart in the source
[9] = test system: SARS-CoV-1; conditions: SARS-CoV-1 in vitro; cited from earlier work
[10] = test system: cells in culture; conditions: cited from earlier work
[11] = Severe acute respiratory syndrome coronavirus 2, Vero C1008, read-out: IC50
[12] = Severe acute respiratory syndrome coronavirus 2, Vero C1008, read-out: IC90
[13] = Severe acute respiratory syndrome coronavirus 2, Virospot reduction assay

Compound	activity against strains of SARS-CoV-2 [1]	IC50 [2, 11] [µg/mL]	IC90 [2, 12] [µg/mL]	IC50 [3, 11] [µg/mL]	IC90 [3, 12] [µg/mL]	IC50 [4, 11] [µg/mL]	IC90 [4, 12] [µg/mL]	further results
OC[C@@H]1[C@@H](O)[C@H](O)[C@@H](O)CN1CCCCCOCC12CC3CC(CC(C3)C1)C2 [AMP-DNM, N-adamantanemethyloxypentyl-1-deoxynojirimycin]	active against at least three strain	–	–	–	–	–	–	IC50 [2]: 7.7 µg/mL (≈ 19.4 µM); IC90 [2]: 34.4 µg/mL (≈ 86.5 µM); IC50 [3]: 2.7 µg/mL (≈ 6.79 µM); IC90 [3]: 24.8 µg/mL (≈ 62.4 µM); IC50 [4]: 8.3 µg/mL (≈ 20.9 µM); IC90 [4]: 28.6 µg/mL (≈ 71.9 µM)
C[C@H]1O[C@H](O[C@H]2[C@H](O)[C@@H](O)[C@@H](O[C@H]3[C@H](O)[C@@H](O)C(O)O[C@@H]3CO)O[C@@H]2CO)[C@H](O)[C@@H](O)[C@@H]1N[C@H]1C=C(CO)[C@@H](O)[C@H](O)[C@H]1O (stereo partly drawn) [Acarbose]	–	> 200	> 200	> 200	> 200	> 200	> 200	–
CCCC(=O)O[C@H]1CN2CC[C@H](O)[C@@H]2[C@@H](O)[C@@H]1O [Celgosivir (6-O-butanoylcastanospermine), 6-O-butanoylcastanospermine]	–	> 200	> 200	> 200	> 200	> 200	> 200	IC50 [1, 13]: > 200 µg/mL; EC50 [5]: 1 ± 0.2 µM; lack of cytotoxicity up to the highest concentrations tested ([6]; viable nuclei, Huh7-hACE2 cells): 500 µM
OCCN1C[C@H](O)[C@@H](O)[C@H](O)[C@H]1CO [Glyset (Miglitol), miglitol]	active against at least one strain	> 200	> 200	90 (≈ 434 µM)	> 200	> 200	> 200	hygroscopicity [7]: extremely hygroscopic
CC(C)(C)NC(=O)N(CCCCCCN1C[C@H](O)[C@@H](O)[C@H](O)[C@H]1CO)C1CCCCC1 [IHVR-19029, 3-tert-butyl-1-cyclohexyl-1-[6-[(2R,3R,4R,5S)-3,4,5-trihydroxy-2-(hydroxymethyl)piperidin-1-yl]hexyl]urea]	active against at least three strain	58.5 (≈ 132 µM)	> 200	5.5 (≈ 12.4 µM)	> 200	48.5 (≈ 109 µM)	> 200	–
CCCCN1C[C@H](O)[C@@H](O)[C@H](O)[C@H]1CO [Miglustat (NB-DNJ), N-butyl-1-deoxynojirimycin]	active against at least one strain	> 200	> 200	19.2 (≈ 87.6 µM)	> 200	> 200	> 200	CC50 [8]: > 1000 µM; EC50 [9]: ~100 µg/mL (≈ 456 µM); IC50 [3]: 15.0 µg/mL (≈ 68.4 µM); cytotoxicity [10]: little cytotoxicity; EC50 [5]: 19.9 ± 3.4 µM; lack of cytotoxicity up to the highest concentrations tested [6]: 200 µM
[N-]=[N+]=Nc1ccc(NCCCCCCN2C[C@H](O)[C@@H](O)[C@H](O)[C@H]2CO)c([N+](=O)[O-])c1 [NAP-DNJ, N-(6′-[4″-azido-2″-nitrophenylamino]hexyl)-1-deoxynojirimycin]	active against at least three strain	1.7 (≈ 4.01 µM)	7.9 (≈ 18.6 µM)	0.1 (≈ 0.236 µM)	5.7 (≈ 13.4 µM)	1.4 (≈ 3.3 µM)	10.2 (≈ 24 µM)	IC50 [1, 13]: < 10 µg/mL; IC90 [1, 13]: < 40 µg/mL
OCC(CO)N[C@H]1C[C@](O)(CO)[C@@H](O)[C@H](O)[C@H]1O [Voglibose]	active against at least one strain	> 200	> 200	91.2 (≈ 341 µM)	> 200	> 200	> 200	–
